Reference: PubChem BioAssay (NCI)
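Dose response: 5 concentrations. Exposure: 48 h. Format: 96-well plates. Endpoint: linear interpolation; highest concentration if not reached. TGI marks complete inhibition of growth.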

Tests used:
Assay in all cases: DTP human tumour cell line panel, 48 h
SF-539 CNS = system: SF-539 CNS
OVCAR-8 ovarian = system: OVCAR-8 ovarian
KM12 colon = system: KM12 colon
SNB-75 CNS = system: SNB-75 CNS
TK-10 renal = system: TK-10 renal
SNB-19 CNS = system: SNB-19 CNS
HL-60(TB) leukemia = system: HL-60(TB) leukemia
RXF 393 renal = system: RXF 393 renal
IGROV1 ovarian = system: IGROV1 ovarian
NCI-H23 lung = system: NCI-H23 lung
HS 578T breast = system: HS 578T breast
U251 CNS = system: U251 CNS
MALME-3M melanoma = system: MALME-3M melanoma
A498 renal = system: A498 renal
SK-OV-3 ovarian = system: SK-OV-3 ovarian
DU-145 prostate = system: DU-145 prostate
OVCAR-5 ovarian = system: OVCAR-5 ovarian
UO-31 renal = system: UO-31 renal
OVCAR-3 ovarian = system: OVCAR-3 ovarian
SW-620 colon = system: SW-620 colon
NCI/ADR-RES ovarian = system: NCI/ADR-RES ovarian
HOP-62 NSCLC = system: HOP-62 NSCLC
HCT-116 colon = system: HCT-116 colon
NCI-H226 lung = system: NCI-H226 lung
CAKI-1 renal = system: CAKI-1 renal
CCRF-CEM leukemia = system: CCRF-CEM leukemia
UACC-62 melanoma = system: UACC-62 melanoma
M14 melanoma = system: M14 melanoma
786-0 renal = system: 786-0 renal
SK-MEL-2 melanoma = system: SK-MEL-2 melanoma
SF-295 CNS = system: SF-295 CNS
UACC-257 melanoma = system: UACC-257 melanoma
BT-549 breast = system: BT-549 breast
MDA-MB-435 = system: MDA-MB-435
SF-268 CNS = system: SF-268 CNS
EKVX NSCLC = system: EKVX NSCLC
OVCAR-4 ovarian = system: OVCAR-4 ovarian
MOLT-4 leukemia = system: MOLT-4 leukemia
T-47D breast = system: T-47D breast
SN12C renal = system: SN12C renal
LOX IMVI melanoma = system: LOX IMVI melanoma
MDA-MB-231 breast = system: MDA-MB-231 breast
HCC-2998 colon = system: HCC-2998 colon
A549 NSCLC = system: A549 NSCLC
NCI-H460 lung = system: NCI-H460 lung
HCT-15 colon = system: HCT-15 colon
MDA-N = system: MDA-N
ACHN renal = system: ACHN renal
K-562 leukemia = system: K-562 leukemia
SK-MEL-5 melanoma = system: SK-MEL-5 melanoma
RPMI-8226 leukemia = system: RPMI-8226 leukemia
MCF7 breast = system: MCF7 breast
SK-MEL-28 melanoma = system: SK-MEL-28 melanoma
COLO 205 colon = system: COLO 205 colon
HT29 colon = system: HT29 colon
PC-3 prostate = system: PC-3 prostate
NCI-H522 lung = system: NCI-H522 lung
HOP-92 NSCLC = system: HOP-92 NSCLC

For `C[n+]1c2ccccc2c2/c(=C\C#N)c3ccccc3n21`, the TGI (SF-539 CNS) was 17.5 µM, the TGI (OVCAR-8 ovarian) was 15.9 µM and the TGI (KM12 colon) was 31.7 µM. The TGI (SNB-75 CNS) was 8.16 µM, the TGI (TK-10 renal) was 8.46 µM and the TGI (SNB-19 CNS) was > 100 µM. For the same compound, the TGI (HL-60(TB) leukemia) was 26.3 µM, the TGI (RXF 393 renal) was 21.9 µM and the TGI (IGROV1 ovarian) was 12.2 µM. The TGI (NCI-H23 lung) was 77.1 µM, the TGI (HS 578T breast) was > 100 µM and the TGI (U251 CNS) was 13.9 µM. It also gave a TGI (MALME-3M melanoma) of 7.55 µM, a TGI (A498 renal) of 82.8 µM and a TGI (SK-OV-3 ovarian) of 16 µM. It also gave a TGI (DU-145 prostate) of 45.8 µM, a TGI (OVCAR-5 ovarian) of 26.1 µM and a TGI (UO-31 renal) of 26.7 µM. The TGI (OVCAR-3 ovarian) was 33.1 µM, the TGI (SW-620 colon) was 11.8 µM and the TGI (NCI/ADR-RES ovarian) was > 100 µM. It also gave a TGI (HOP-62 NSCLC) of 8.17 µM, a TGI (HCT-116 colon) of 8.45 µM and a TGI (NCI-H226 lung) of 17.6 µM. For the same compound, the TGI (CAKI-1 renal) was 95.4 µM, the TGI (CCRF-CEM leukemia) was 50.2 µM and the TGI (UACC-62 melanoma) was 54.2 µM. It also gave a TGI (M14 melanoma) of 18.6 µM, a TGI (786-0 renal) of 14.8 µM and a TGI (SK-MEL-2 melanoma) of 8.52 µM. The TGI (SF-295 CNS) was 19.2 µM, the TGI (UACC-257 melanoma) was 20.8 µM and the TGI (BT-549 breast) was 8.42 µM. It also gave a TGI (MDA-MB-435) of 28.1 µM, a TGI (SF-268 CNS) of 29.3 µM and a TGI (EKVX NSCLC) of 6.54 µM. It also gave a TGI (OVCAR-4 ovarian) of 11.4 µM, a TGI (MOLT-4 leukemia) of 57.7 µM and a TGI (T-47D breast) of 58.5 µM. For the same compound, the TGI (SN12C renal) was 38 µM, the TGI (LOX IMVI melanoma) was 16.6 µM and the TGI (MDA-MB-231 breast) was 82.3 µM. It also gave a TGI (HCC-2998 colon) of 5.27 µM, a TGI (A549 NSCLC) of 32.9 µM and a TGI (NCI-H460 lung) of 22.8 µM. The TGI (HCT-15 colon) was 97.2 µM, the TGI (MDA-N) was 18.6 µM and the TGI (ACHN renal) was 18.5 µM. For the same compound, the TGI (K-562 leukemia) was > 100 µM, the TGI (SK-MEL-5 melanoma) was 61.3 µM and the TGI (RPMI-8226 leukemia) was 16.9 µM. For the same compound, the TGI (MCF7 breast) was 21.7 µM, the TGI (SK-MEL-28 melanoma) was 30.3 µM and the TGI (COLO 205 colon) was 4.87 µM. The TGI (HT29 colon) was 16.5 µM.

With `COc1ccc(N=NC(=O)NC(CC(C)C)C(=O)NC(CC(C)C)C(=O)O)cc1` (stereo not given) the TGI (SF-539 CNS) was 57.6 µM, the TGI (OVCAR-8 ovarian) was > 100 µM and the TGI (KM12 colon) was > 100 µM. For the same compound, the TGI (SNB-75 CNS) was > 100 µM, the TGI (TK-10 renal) was > 100 µM and the TGI (SNB-19 CNS) was > 100 µM. For the same compound, the TGI (HL-60(TB) leukemia) was > 100 µM, the TGI (RXF 393 renal) was > 100 µM and the TGI (IGROV1 ovarian) was > 100 µM. For the same compound, the TGI (NCI-H23 lung) was > 100 µM, the TGI (HS 578T breast) was > 100 µM and the TGI (U251 CNS) was > 100 µM. For the same compound, the TGI (MALME-3M melanoma) was > 100 µM, the TGI (A498 renal) was > 100 µM and the TGI (PC-3 prostate) was > 100 µM. For the same compound, the TGI (DU-145 prostate) was > 100 µM, the TGI (OVCAR-5 ovarian) was > 100 µM and the TGI (UO-31 renal) was > 100 µM. For the same compound, the TGI (OVCAR-3 ovarian) was > 100 µM, the TGI (SW-620 colon) was > 100 µM and the TGI (NCI/ADR-RES ovarian) was > 100 µM. The TGI (HOP-62 NSCLC) was > 100 µM, the TGI (HCT-116 colon) was > 100 µM and the TGI (NCI-H226 lung) was > 100 µM. For the same compound, the TGI (CAKI-1 renal) was > 100 µM, the TGI (CCRF-CEM leukemia) was > 100 µM and the TGI (UACC-62 melanoma) was > 100 µM. The TGI (NCI-H522 lung) was > 100 µM, the TGI (M14 melanoma) was > 100 µM and the TGI (786-0 renal) was > 100 µM. The TGI (SF-295 CNS) was > 100 µM, the TGI (UACC-257 melanoma) was > 100 µM and the TGI (BT-549 breast) was > 100 µM. The TGI (MDA-MB-435) was > 100 µM, the TGI (SF-268 CNS) was > 100 µM and the TGI (EKVX NSCLC) was > 100 µM. The TGI (OVCAR-4 ovarian) was > 100 µM, the TGI (MOLT-4 leukemia) was > 100 µM and the TGI (T-47D breast) was > 100 µM. For the same compound, the TGI (SN12C renal) was > 100 µM, the TGI (LOX IMVI melanoma) was > 100 µM and the TGI (HCC-2998 colon) was > 100 µM. The TGI (A549 NSCLC) was > 100 µM, the TGI (NCI-H460 lung) was > 100 µM and the TGI (HCT-15 colon) was > 100 µM. The TGI (MDA-N) was > 100 µM, the TGI (ACHN renal) was 80.2 µM and the TGI (K-562 leukemia) was 80.3 µM. For the same compound, the TGI (SK-MEL-5 melanoma) was > 100 µM, the TGI (RPMI-8226 leukemia) was > 100 µM and the TGI (MCF7 breast) was > 100 µM. For the same compound, the TGI (SK-MEL-28 melanoma) was > 100 µM, the TGI (COLO 205 colon) was 49.5 µM and the TGI (HOP-92 NSCLC) was > 100 µM. The TGI (HT29 colon) was > 100 µM.
